Like-named read-outs stand apart in the source and are kept apart here.
How the values were obtained:
[1] = biological target: T1, Recombinant human serotonin receptor 5-HT2A (Homo sapiens, UniProt P28223); test: Aequorin assay, receptor agonist/antagonist activity, CHO-K1 cells; type: cell-based
T1 construct: expressed in transfected cells; host or cells: CHO-K1 (coexpressing mitochondrial apoaequorin)
Description: (§1) Compound 1 was synthesized as described above and assayed for receptor activity against a panel of dopaminergic and serotoninergic receptors. Recombinant human serotonin receptors 5-HT2A, and 5-HT2B were expressed in CHO-K1 cells and activity (receptor agonist/antagonist activity) was assayed using an Aequorin assay (coexpression of mitochondrial apoaequorin). Compound 1 was used at a concentration of 0.010 nM to 20,000 nM for agonist activity and 0.005 nM to 10,000 nM for antagonist activity.

[2] = biological target: T2, Recombinant human serotonin receptor 5-HT2B (Homo sapiens, UniProt P41595); test: as above; type: cell-based
T2 construct: expressed in transfected cells; host or cells: CHO-K1 (coexpressing mitochondrial apoaequorin)
T2 sequence (P41595 whole entry): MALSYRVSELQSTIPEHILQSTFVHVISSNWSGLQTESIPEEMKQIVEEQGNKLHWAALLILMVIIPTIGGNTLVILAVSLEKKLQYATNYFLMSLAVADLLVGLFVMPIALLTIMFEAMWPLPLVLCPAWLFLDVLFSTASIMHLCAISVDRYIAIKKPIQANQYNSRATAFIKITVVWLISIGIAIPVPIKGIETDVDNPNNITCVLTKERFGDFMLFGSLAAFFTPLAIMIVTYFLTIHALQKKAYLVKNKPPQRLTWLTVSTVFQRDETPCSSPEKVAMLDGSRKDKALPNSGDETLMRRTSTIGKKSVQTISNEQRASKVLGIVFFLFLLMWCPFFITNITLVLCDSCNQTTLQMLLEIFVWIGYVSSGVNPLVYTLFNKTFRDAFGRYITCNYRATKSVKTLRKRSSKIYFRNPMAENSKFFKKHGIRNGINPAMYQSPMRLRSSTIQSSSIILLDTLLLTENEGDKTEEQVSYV
Description: as §1

[3] = biological target: Recombinant human dopaminergic receptor D1 (Homo sapiens, UniProt P21728); test: GTPγS functional assay; type: biochemical
Chain of Recombinant human dopaminergic receptor D1 (P21728 whole entry): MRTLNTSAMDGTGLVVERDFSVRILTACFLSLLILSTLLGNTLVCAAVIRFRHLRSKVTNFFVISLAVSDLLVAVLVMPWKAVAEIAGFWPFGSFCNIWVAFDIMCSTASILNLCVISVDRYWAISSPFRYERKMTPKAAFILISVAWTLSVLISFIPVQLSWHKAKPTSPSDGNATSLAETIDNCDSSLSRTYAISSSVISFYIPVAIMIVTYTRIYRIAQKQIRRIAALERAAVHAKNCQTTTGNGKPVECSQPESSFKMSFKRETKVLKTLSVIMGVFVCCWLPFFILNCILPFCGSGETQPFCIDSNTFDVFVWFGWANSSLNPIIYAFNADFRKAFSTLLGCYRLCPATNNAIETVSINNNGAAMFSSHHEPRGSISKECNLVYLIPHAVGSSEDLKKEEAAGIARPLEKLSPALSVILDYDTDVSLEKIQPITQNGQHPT
Description: (§2) Recombinant human dopaminergic receptor D1, D2L, and D4 and serotonin receptor 5-HT1B and 5-HTID activity was assayed using a GTPΥS functional assay with Compound 1 at concentrations between 0.01 nM and 10,000 nM.

[4] = biological target: Recombinant human dopaminergic receptor D2L (Homo sapiens, UniProt P14416); test: GTPγS functional assay; type: biochemical; settings: read-out: EC50, agonist activity with the D2L receptor
Chain of Recombinant human dopaminergic receptor D2L (P14416 whole entry): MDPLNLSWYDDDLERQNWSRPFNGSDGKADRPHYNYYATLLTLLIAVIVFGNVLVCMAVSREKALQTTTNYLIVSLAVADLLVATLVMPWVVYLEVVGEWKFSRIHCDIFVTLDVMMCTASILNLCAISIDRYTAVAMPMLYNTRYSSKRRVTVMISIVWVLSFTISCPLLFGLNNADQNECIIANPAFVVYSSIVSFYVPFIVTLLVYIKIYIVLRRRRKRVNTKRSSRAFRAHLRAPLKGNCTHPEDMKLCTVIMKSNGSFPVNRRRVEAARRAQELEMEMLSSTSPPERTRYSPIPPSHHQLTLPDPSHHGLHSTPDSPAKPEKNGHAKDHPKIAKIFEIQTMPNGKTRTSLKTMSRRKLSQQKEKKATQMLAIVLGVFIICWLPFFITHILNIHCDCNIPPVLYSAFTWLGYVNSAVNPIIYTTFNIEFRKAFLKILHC
Description: as §2

[5] = biological target: T3, Recombinant human dopaminergic receptor D4 (Homo sapiens, UniProt P21917); test: GTPγS functional assay; type: biochemical
T3 sequence (P21917 1-419): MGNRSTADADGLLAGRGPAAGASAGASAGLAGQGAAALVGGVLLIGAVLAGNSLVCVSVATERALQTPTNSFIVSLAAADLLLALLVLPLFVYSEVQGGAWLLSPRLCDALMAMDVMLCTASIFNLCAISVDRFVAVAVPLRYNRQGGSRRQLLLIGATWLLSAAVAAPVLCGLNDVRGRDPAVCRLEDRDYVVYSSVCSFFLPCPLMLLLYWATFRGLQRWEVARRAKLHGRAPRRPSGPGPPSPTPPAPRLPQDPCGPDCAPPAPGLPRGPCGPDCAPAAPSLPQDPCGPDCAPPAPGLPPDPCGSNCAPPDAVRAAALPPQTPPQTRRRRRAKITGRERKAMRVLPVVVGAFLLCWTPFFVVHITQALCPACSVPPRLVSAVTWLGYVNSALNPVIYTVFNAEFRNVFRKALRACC
Description: as §2

[6] = biological target: T4, serotonin receptor 5-HT1B (Homo sapiens, UniProt P28222); test: GTPγS functional assay; type: biochemical; settings: 0.01 nM to 10,000 nM
T4 sequence (P28222 whole entry): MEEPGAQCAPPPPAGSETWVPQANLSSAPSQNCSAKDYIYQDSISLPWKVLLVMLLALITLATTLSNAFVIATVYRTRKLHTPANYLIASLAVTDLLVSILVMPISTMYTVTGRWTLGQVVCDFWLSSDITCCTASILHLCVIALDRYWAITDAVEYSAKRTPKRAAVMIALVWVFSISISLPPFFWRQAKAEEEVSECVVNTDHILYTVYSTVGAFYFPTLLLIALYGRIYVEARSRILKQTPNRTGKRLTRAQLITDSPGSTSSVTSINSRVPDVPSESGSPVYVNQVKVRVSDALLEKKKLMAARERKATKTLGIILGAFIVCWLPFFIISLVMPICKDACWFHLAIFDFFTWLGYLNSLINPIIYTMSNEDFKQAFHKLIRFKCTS
Description: as §2

[7] = biological target: T5, serotonin receptor 5-HT1D (Homo sapiens, UniProt P28221); test: GTPγS functional assay; type: biochemical
T5 sequence (P28221 whole entry): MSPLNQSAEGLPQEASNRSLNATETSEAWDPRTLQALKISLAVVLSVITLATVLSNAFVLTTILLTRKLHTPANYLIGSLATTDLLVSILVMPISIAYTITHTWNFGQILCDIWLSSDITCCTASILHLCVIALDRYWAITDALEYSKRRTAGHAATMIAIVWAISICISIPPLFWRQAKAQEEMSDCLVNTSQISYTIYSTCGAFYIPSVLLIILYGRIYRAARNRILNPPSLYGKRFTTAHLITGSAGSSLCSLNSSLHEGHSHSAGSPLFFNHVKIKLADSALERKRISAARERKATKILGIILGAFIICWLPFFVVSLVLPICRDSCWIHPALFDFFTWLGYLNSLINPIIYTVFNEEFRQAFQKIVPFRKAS
Description: as §2

[8] = biological target: T1, Recombinant human serotonin receptor 5-HT2A; settings: reported, Newman-Tancredi et al. 2002; read-out: reported EC50 on 5-HT2A receptors; cited from earlier work
[9] = biological target: T2, Recombinant human serotonin receptor 5-HT2B; settings: reported, Newman-Tancredi et al. 2002; read-out: reported EC50 on 5-HT2B receptors; cited from earlier work
[10] = biological target: T3, Recombinant human dopaminergic receptor D4; settings: cited from earlier work
[11] = biological target: T5, serotonin receptor 5-HT1D; settings: cited from earlier work
[12] = biological target: T4, serotonin receptor 5-HT1B; settings: read-out: EC50 on 5-HT1B receptors, reported; Newman-Tancredi et al. 2002; cited from earlier work

T1 sequence (P28223 whole entry): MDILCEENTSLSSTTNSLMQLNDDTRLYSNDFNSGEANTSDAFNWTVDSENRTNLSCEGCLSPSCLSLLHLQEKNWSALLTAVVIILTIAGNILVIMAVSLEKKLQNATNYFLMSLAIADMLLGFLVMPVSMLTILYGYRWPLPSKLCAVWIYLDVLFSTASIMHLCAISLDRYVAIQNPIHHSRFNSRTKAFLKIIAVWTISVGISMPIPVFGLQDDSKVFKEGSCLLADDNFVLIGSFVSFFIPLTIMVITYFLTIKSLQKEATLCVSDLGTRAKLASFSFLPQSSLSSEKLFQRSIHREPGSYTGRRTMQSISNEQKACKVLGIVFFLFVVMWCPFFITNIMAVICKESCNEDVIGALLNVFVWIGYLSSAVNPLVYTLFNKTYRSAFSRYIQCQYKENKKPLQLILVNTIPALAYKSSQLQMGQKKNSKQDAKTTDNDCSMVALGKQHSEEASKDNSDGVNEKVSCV

**Q.** What does the source list for `C=CCN1C[C@H](C(=O)N(CCCN(C)C)C(=O)NCC)C[C@@H]2c3cccc4[nH]c(C(F)(F)F)c(c34)C[C@H]21` [Compound 1]?
**A.** EC50 ([1]; agonist activity, Aequorin assay, CHO-K1, read-out: EC50 on 5-HT2A receptors): 946 nM; 5-HT2A receptor agonist activity in words ([1]; as compared to cabergoline): weak; EC50 ([2]; agonist activity, Aequorin assay, CHO-K1, read-out: EC50 on 5-HT2B receptors): 6050 nM; 5-HT2B receptor agonist activity in words ([2]; as compared to cabergoline): weak; selectivity for the D2L receptor over the D1 receptor [3]: approximately 110 fold; EC50 [4]: 12.6 nM; Emax ([5]; GTPγS, receptor not given, follows the D2L/D4 comparison): 26%; D2L to D4 receptor selectivity ([5]; when comparing EC50): 18 fold; activity on 5-HT1B receptors [6]: not active; agonist activity on serotonin receptor 5-HT1D in words [7]: weak agonist activity; EC50 ([7]; GTPγS, read-out: EC50, agonist on 5-HT1D receptors): 263 nM; Emax ([7]; GTPγS, read-out: Emax on 5-HT1D receptors): 31%

**Q.** Which EC50 [8] does the source give for `C=CCN1C[C@H](C(=O)N(CCCN(C)C)C(=O)NCC)C[C@@H]2c3cccc4[nH]cc(c34)C[C@H]21` [cabergoline, Cabergoline] here?
**A.** 7.8 nM

**Q.** What about the EC50 [9] of the same molecule?
**A.** 2.6 nM

**Q.** And the “D2L to D4 receptor selectivity, reported” value ([10]; reported results for cabergoline)?
**A.** ~200 fold

**Q.** What about the “Emax, reported” value ([10]; reported values, Newman-Tancredi et al. 2002, receptor not given) of the same molecule?
**A.** 49%

**Q.** And the EC50 ([11]; Newman-Tancredi et al. 2002, read-out: EC50 on 5-HT1D receptors, reported)?
**A.** 16 nM

**Q.** What about the “Emax on 5-HT1D receptors, cabergoline comparison” value ([11]; comparison value for cabergoline) of the same molecule?
**A.** 68%

**Q.** And the EC50 [12]?
**A.** 2240 nM
